Measurements taken from US12398138B2, “FGFR inhibitor compound in solid form and preparation method therefor” (CSPC ZHONGQI PHARMACEUTICAL TECHNOLOGY (SHIJIAZHUANG) CO., …, priority 2019, dated 2025).
Like-named read-outs stand apart in the source and are kept apart here.

Experiments:
[1] = Hygroscopicity by dynamic vapor sorption (DVS); type: physicochemical; settings: 25° C. and 80% RH
Experimental: Dynamic Vapor Sorption (DVS)
Test condition: Approximately 10-15 mg of sample was used for DVS detection.
Equilibrating dm/dt: 0.01%/min: (time: 10 min-180 min (maximum))
RH (%) measuring gradient: 10%
Range of RH (%) measuring gradient: 0%-90%-0%
The evaluation criteria was as follows:
SMS DVS Advantage dynamic vapor adsorption instrument
10-15 mg of the crystal form B of the compound of Formula (I) was taken and placed on a DVS sample pan for test.

FGFR4 (N535K) = target: T1, FGFR4 (N535K) (Homo sapiens, UniProt P22455, N535K); assay: 33P isotope-labeled kinase activity assay, mutant FGFR4 (N535K); type: biochemical; settings: ATP 2.5 μM
T1 construct: purchased Carna Biosciences Carna 08-524
T1 sequence (P22455 22-802 N535K): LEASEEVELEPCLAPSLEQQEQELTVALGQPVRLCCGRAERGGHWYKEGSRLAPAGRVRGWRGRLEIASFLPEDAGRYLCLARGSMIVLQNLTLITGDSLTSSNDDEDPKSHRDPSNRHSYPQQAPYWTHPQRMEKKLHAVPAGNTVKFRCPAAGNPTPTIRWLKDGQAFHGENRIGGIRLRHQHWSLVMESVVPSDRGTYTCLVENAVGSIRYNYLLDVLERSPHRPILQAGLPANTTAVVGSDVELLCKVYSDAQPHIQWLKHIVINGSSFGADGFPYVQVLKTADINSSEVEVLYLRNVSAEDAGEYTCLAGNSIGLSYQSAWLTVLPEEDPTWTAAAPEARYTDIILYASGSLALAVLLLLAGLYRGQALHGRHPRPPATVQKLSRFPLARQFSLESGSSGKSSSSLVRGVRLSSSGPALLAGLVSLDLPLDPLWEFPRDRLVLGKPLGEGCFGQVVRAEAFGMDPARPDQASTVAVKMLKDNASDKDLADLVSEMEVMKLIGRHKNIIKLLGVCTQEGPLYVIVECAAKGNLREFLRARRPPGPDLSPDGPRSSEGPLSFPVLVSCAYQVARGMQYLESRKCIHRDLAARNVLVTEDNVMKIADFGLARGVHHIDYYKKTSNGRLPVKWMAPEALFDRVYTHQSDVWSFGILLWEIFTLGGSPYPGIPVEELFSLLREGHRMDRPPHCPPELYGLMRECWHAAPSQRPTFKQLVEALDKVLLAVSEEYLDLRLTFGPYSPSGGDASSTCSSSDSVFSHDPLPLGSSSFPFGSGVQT
Experimental: (§1) IC50 was determined by using ^33P isotope-labeled kinase activity assay (Reaction Biology Corp), to evaluate the inhibitory ability of the test compound against mutant FGFR.
(§2) Test procedures: At room temperature, test compound was dissolved in DMSO to prepare a 10 mM solution. The substrate was dissolved in a freshly prepared buffer, to which the test kinase was added and well mixed. By using acoustic technology (Echo 550), the solution of the test compound in DMSO was added into the well-mixed reaction solution, to allow a compound concentration in reaction solution to be 10 μM, 3.33 μM, 1.11 μM, 0.370 μM, 0.123 μM, 41.2 nM, 13.7 nM, 4.57 nM, 1.52 nM, 0.508 nM, or to be 10 μM, 2.50 μM, 0.62 μM, 0.156 μM, 39.1 nM, 9.8 nM, 2.4 nM, 0.61 nM, 0.15 nM, 0.038 nM. After 15 minutes of incubation, ^33P-ATP (having an activity of 0.01 μCi/μl, and corresponding concentrations were given in Table 5) was added to start the reaction. […] After washing the filter paper with a 0.75% phosphoric acid solution repeatedly, the radioactivity of the phosphorylated substrate left on the filter paper was measured. The kinase activity data was expressed by comparing the kinase activity of the test compound with that of blank group (containing DMSO only), and IC50 was determined by curve fitting with Prism4 software (GraphPad).

FGFR2 (N549H) = target: T2, FGFR2 (N549H) (Homo sapiens, UniProt P21802, N549H); assay: 33P isotope-labeled kinase activity assay, mutant FGFR2 (N549H); type: biochemical; settings: ATP 50 μM
T2 construct: purchased Millipore 14-742
T2 sequence (P21802 22-821 N549H): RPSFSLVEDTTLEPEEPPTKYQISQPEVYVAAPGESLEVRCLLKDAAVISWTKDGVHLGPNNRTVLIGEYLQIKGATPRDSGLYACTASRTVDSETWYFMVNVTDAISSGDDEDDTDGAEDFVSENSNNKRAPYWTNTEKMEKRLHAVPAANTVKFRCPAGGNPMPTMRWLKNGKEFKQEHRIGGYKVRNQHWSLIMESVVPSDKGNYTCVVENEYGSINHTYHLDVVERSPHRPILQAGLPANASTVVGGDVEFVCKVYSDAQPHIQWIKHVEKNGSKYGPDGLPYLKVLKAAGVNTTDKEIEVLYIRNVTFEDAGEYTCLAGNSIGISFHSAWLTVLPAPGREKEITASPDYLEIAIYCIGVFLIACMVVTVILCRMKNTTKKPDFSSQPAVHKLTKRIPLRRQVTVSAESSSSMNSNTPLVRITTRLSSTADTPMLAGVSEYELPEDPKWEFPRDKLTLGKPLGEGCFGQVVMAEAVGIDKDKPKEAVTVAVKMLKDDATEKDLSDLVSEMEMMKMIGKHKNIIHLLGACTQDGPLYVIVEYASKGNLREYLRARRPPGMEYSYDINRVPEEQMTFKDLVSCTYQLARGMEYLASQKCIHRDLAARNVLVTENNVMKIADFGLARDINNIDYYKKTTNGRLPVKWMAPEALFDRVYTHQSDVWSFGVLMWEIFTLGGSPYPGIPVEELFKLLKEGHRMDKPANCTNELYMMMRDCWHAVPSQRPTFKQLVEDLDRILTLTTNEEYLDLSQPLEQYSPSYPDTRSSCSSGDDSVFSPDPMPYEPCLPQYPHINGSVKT
Experimental: as §1, §2

FGFR3 (K650M) = target: T3, FGFR3 (K650M) (Homo sapiens, UniProt P22607, K650M); assay: 33P isotope-labeled kinase activity assay, mutant FGFR3 (K650M); type: biochemical; settings: ATP 2.5 μM
T3 construct: purchased Carna Biosciences Carna 08-199
T3 sequence (P22607 23-806 K650M): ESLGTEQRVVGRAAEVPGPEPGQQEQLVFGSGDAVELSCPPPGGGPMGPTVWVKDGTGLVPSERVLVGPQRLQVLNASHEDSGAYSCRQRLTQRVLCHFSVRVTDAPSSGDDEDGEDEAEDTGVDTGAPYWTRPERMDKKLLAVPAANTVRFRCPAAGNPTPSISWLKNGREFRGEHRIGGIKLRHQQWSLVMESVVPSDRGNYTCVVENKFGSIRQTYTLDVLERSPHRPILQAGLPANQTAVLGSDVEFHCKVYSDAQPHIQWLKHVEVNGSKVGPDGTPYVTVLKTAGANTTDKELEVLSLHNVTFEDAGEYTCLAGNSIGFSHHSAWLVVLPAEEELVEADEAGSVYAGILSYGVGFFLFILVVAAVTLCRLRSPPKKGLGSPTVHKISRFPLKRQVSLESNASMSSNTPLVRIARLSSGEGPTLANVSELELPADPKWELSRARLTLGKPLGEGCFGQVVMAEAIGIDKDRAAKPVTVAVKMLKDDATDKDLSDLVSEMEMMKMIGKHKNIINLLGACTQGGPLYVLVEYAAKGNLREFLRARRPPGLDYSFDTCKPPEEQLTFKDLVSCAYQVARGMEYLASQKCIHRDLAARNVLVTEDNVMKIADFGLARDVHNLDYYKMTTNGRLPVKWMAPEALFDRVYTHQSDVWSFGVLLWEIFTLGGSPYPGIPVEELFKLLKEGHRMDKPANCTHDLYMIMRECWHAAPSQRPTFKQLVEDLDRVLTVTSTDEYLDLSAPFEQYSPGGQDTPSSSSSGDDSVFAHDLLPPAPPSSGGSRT
Experimental: as §1, §2

human FGFR4 = target: T4, human FGFR4 (Homo sapiens, UniProt P22455); assay: 33P isotope-labeled kinase activity assay, wild type FGFR4; type: biochemical; settings: ATP 100 μM
T4 construct: purchased Invitrogen P3054
T4 sequence (P22455 22-802): as the sequence (P22455 22-802 N535K) above, with K514N counted along it
Experimental: (§3) IC50 was determined by using ^33P isotope-labeled kinase activity assay (Reaction Biology Corp), to evaluate the inhibitory ability of the test compound against human FGFR1 and FGFR4.
(§4) Buffer conditions: 20 mM Hepes (pH 7.5), 10 mM MgCl2, 1 mM EGTA, 0.02% Brij35, 0.02 mg/mL BSA, 0.1 mM Na3VO4, 2 mM DTT, and 1% DMSO.
(§5) Test procedures: At room temperature, the compound of Formula (I) was dissolved in DMSO to prepare a 10 mM solution. The substrate was dissolved in a freshly prepared buffer, and added with the test kinase and well mixed. By using acoustic technology (Echo 550), the solution of the test compound in DMSO was added into the above well-mixed reaction solution, to allow a compound concentration in reaction solution to be 10 μM, 3.33 μM, 1.11 μM, 0.370 μM, 0.123 μM, 41.2 nM, 13.7 nM, 4.57 nM, 1.52 nM, and 0.508 nM, or to be 10 μM, 2.50 μM, 0.62 μM, 0.156 μM, 39.1 nM, 9.8 nM, 2.4 nM, 0.61 nM, 0.15 nM, and 0.038 nM. After 15 minutes of incubation, ^33P-ATP (having an activity of 0.01 μCi/μl, and corresponding concentrations were given in Table 3) was added to start the reaction. Information about FGFR1, FGFR4 and their substrate's supplier, catalog number and lot number, as well as their concentration in the reaction solution, was listed in Table 3. […]

FGFR3 (V555M) = target: T5, FGFR3 (V555M) (Homo sapiens, UniProt P22607, V555M); assay: 33P isotope-labeled kinase activity assay, mutant FGFR3 (V555M); type: biochemical; settings: ATP 20 μM
T5 construct: purchased SignalChem F06-12GG
T5 sequence (P22607 23-806 V555M): as the sequence (P22607 23-806 K650M) above, with V533M, M628K counted along it
Experimental: as §1, §2

FGFR2 (E565G) = target: T6, FGFR2 (E565G) (Homo sapiens, UniProt P21802, E565G); assay: 33P isotope-labeled kinase activity assay, mutant FGFR2 (E565G); type: biochemical; settings: ATP 10 μM
T6 construct: purchased Signal Chem F05-12CG
T6 sequence (P21802 22-821 E565G): as the sequence (P21802 22-821 N549H) above, with H528N, E544G counted along it
Experimental: as §1, §2

FGFR1 (V561M) = target: T7, FGFR1 (V561M) (Homo sapiens, UniProt P11362, V561M); assay: 33P isotope-labeled kinase activity assay, mutant FGFR1 (V561M); type: biochemical; settings: ATP 10 μM
T7 construct: purchased Signal Chem F04-13G
T7 sequence (P11362 22-822 V561M): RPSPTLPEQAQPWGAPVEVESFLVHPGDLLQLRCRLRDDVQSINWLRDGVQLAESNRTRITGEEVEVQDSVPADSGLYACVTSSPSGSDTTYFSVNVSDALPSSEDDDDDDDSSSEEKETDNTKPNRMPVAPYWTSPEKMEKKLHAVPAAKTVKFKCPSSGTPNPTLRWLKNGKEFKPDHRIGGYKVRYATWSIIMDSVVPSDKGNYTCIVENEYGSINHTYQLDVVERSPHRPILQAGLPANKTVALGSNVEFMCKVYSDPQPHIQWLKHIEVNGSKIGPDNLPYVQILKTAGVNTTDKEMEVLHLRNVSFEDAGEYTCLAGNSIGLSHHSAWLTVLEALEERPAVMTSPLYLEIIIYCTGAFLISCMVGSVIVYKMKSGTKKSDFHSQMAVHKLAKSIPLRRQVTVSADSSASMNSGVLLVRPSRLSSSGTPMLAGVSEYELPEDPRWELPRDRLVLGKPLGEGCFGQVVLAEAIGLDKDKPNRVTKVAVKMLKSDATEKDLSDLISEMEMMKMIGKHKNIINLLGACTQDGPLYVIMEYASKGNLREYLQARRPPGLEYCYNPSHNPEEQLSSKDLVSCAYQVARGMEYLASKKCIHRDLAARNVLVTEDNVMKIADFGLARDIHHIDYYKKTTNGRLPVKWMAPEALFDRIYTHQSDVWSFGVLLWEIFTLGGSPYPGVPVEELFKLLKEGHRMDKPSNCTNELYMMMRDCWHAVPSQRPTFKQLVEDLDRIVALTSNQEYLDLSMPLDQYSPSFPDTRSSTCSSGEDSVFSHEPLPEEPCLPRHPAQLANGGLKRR
Experimental: as §1, §2

[2] = Pharmacokinetic investigation in dogs; type: in vivo; settings: male, dog, plasma, beagle dogs; for AUC: read-out: Concentration integral AUC; for half-life: read-out: Half-life T1/2 (converted); for bioavailability: read-out: Bioavailability F
Excerpt: The experiments aimed to test the pharmacokinetics of the test compound in beagle dogs.
Two beagle dogs were selected as one group. The compound was formulated into a designated preparation. The vehicle for intravenous injection was a mixture of DMSO: polyethylene glycol […] (PEG400): saline=10:40:50 (volume ratio) or a mixture of 10% DMSO/10% solutol/80% water. The vehicle for oral administration was a mixture of 0.5% methylcellulose (MC)+0.2% Tween. Each animal was given the preparation intragastrically at a predetermined dosage.
Whole blood samples, each about 500 μL, were collected from the cephalic vein or saphenous vein at […], namely 5 minutes, 15 minutes, 30 minutes, 1 hour, 2 hours, 4 hours, 6 hours, 8 hours, 12 hours and 24 hours after the animals were administered.
The […] was put into a centrifuge tube containing anticoagulant, and centrifuged at 3000 g for 10 min at 4° C. The plasma supernatant was frozen quickly on dry ice, and then kept in a frige at −70±10° C. until LC-MS/MS analysis was performed.
The plasma concentration of the compound was processed using a non-compartmental model by WinNonlin™ Version 6.3.0 (Pharsight, Mountain View, Calif.) pharmacokinetic software. The peak concentration (Cmax), time of maximum plasma concentration (Tmax), and time of the last quantifiable concentration, were determined directly from the curve of plasma concentration−time.
The following pharmacokinetic parameters: half-life time of elimination phase (T½), the mean residence time of the drug in the body from time 0 to the end timepoint (MRT0-last), the mean residence time of the drug in the body from time 0 to infinite time (MRT0-inf), area under the plasma concentration-time curve from time 0 to the end timepoint (AUC0-last), area under plasma concentration-time curve from time 0 to infinite time (AUC0-inf), were calculated using the log-linear trapezoidal method.
For the individual plasma concentration below the detection line, when it appeared before Tmax, it was calculated as 0; when it appeared after Tmax, it was directly excluded. All parameters and ratios were reported in the form of three significant figures.
In these experiments, the pharmacokinetic parameters were calculated based on the theoretical blood collection time and theoretical administration concentration in the embodiments.

human FGFR1 = target: T8, human FGFR1 (Homo sapiens, UniProt P11362); assay: 33P isotope-labeled kinase activity assay, wild type FGFR1; type: biochemical; settings: ATP 5 μM
T8 construct: purchased Invitrogen PV3146
T8 sequence (P11362 22-822): as the sequence (P11362 22-822 V561M) above, with M540V counted along it
Experimental: as §3, §4, §5

FGFR2 (V564F) = target: T9, FGFR2 (V564F) (Homo sapiens, UniProt P21802, V564F); assay: 33P isotope-labeled kinase activity assay, mutant FGFR2 (V564F); type: biochemical; settings: ATP 20 μM
T9 construct: purchased SignalChem F05-12FG
T9 sequence (P21802 22-821 V564F): as the sequence (P21802 22-821 N549H) above, with H528N, V543F counted along it
Experimental: as §1, §2

FGFR4 (V550M) = target: T10, FGFR4 (V550M) (Homo sapiens, UniProt P22455, V550M); assay: 33P isotope-labeled kinase activity assay, mutant FGFR4 (V550M); type: biochemical; settings: ATP 2.5 μM
T10 construct: purchased Signal Chem F07-12DG
T10 sequence (P22455 22-802 V550M): as the sequence (P22455 22-802 N535K) above, with K514N, V529M counted along it
Experimental: as §1, §2

[3] = 1 mg/kg, intravenous administration (1 mpk)
[4] = 5 mg/kg, oral administration (5 mpk)

weight gain caused by moisture-adsorption ΔW [1] [%]	IC50 (FGFR4 (N535K)) [nM]	IC50 (FGFR2 (N549H)) [nM]	IC50 (FGFR3 (K650M)) [nM]	IC50 (human FGFR4) [nM]	IC50 (FGFR3 (V555M)) [nM]	IC50 (FGFR2 (E565G)) [nM]	IC50 (FGFR1 (V561M)) [nM]	AUC [2, 3] [µM·h]	AUC [2, 4] [µM·h]	IC50 (human FGFR1) [nM]	IC50 (FGFR2 (V564F)) [nM]	IC50 (FGFR4 (V550M)) [nM]	SMILES	hygroscopicity classification [1]	clearance [2, 3] [mL/min/kg]	half-life [2, 3] [h]	bioavailability [2, 4] [%]
0.1928													C=CC(=O)N1CC[C@H](c2cc(-c3cc4cc(C)cc(OC)c4s3)c3c(N)ncnn23)C1	no or almost no hygroscopicity (weight gain caused by moisture is less than 0.2%.)			
	34	0.5	0.2	0.2	7.3	0.1	38	4.13	18.2	0.2	33	5.6	C=CC(=O)N1CC[C@H](c2cc(-c3cc4cc(C)cc(OC)c4s3)c3c(N)ncnn23)C1 [compound represented by Formula (I)]		9.4	3	88
													C=CC(=O)N1CC[C@H](n2nc(C#Cc3cc(OC)cc(OC)c3)c3c(N)ncnc32)C1 [reference compound 1, reference compound]		17	0.8	41
